Measurements as given in patent publication US20240228488A1 (TAKEDA PHARMACEUTICAL COMPANY LIMITED, priority 2021, published 2024).

Biological target: human activated kallikrein enzyme (Homo sapiens, UniProt P03952)
Assay: Plasma kallikrein inhibition, fluorogenic PFR-AMC substrate, 500 pM activated kallikrein format
Format: biochemical
Conditions: 500 pM activated kallikrein, 300 uM PFR-AMC, 30 min preincubation, 10 min reaction; read-out: Primary Dose Response Assay: Average EC50
Procedure, shortened: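 Fluorescence (ex 380/em 460 nm) is read after 10 min of 300 uM PFR-AMC turnover by 500 pM enzyme at RT. Compounds sit with enzyme for 30 min beforehand. Buffer is Tris (pH 7.5) with EDTA, NaCl, PEG-400 and Triton X-100; EC50 values are banded.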

Chain of human activated kallikrein enzyme (P03952 391-638 limits assumed): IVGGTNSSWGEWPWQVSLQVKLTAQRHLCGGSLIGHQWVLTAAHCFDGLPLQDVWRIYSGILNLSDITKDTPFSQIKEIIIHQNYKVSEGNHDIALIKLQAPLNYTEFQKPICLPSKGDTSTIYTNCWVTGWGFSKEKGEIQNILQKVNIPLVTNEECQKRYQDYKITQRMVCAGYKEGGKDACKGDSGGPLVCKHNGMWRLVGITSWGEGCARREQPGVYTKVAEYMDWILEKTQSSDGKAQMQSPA
Chain of human activated kallikrein enzyme (P03952 20-390 partner limits assumed): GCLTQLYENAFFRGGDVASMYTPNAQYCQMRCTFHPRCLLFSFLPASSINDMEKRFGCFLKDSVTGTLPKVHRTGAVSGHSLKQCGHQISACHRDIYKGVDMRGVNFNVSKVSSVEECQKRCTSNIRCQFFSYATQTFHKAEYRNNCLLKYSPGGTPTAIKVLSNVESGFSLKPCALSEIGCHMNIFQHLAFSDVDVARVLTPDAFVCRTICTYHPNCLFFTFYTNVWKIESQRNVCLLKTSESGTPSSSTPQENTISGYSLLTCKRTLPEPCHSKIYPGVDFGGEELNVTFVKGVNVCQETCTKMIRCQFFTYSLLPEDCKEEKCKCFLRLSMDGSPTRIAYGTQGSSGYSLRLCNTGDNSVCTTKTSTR

EC50 [nM] | SMILES
1000 to 6000 | O=C(Nc1cc(N2C[C@@H](CO)C[C@@H]2c2cn3cc(C4CC4)ccc3n2)ncn1)[C@H]1C[C@@H]1c1cc(Cl)ccn1 [Example 442, (1S,2S)-2-(4-chloropyridin-2-yl)-N-(6-((2R,4S)-2-(6-cyclopropylimidazo[1,2-a]pyridin-2-yl)-4-(hydroxymethyl)pyrrolidin-1-yl)pyrimidin-4-yl)cyclopropane-1-carboxamide]
10 to 100 | Cc1ccnc([C@H]2C[C@@H]2C(=O)Nc2cc(N[C@@H](C)c3cn4cc(C5CC5)cc(N5CC(=O)N(C)C5=O)c4n3)nc(C)n2)n1 [Example 455, (1S,2S)—N-(6S-((1-(6-cyclopropyl-8-(3-methyl-2,4-dioxoimidazolidin-1-yl)imidazo[1,2-a]pyridin-2-yl)ethyl)amino)-2-methylpyrimidin-4-yl)-2-(4-methylpyrimidin-2-yl)cyclopropane-1-carboxamide]
1 to 10 | Cc1ccnc([C@H]2C[C@@H]2C(=O)Nc2cc(N(CC(=O)O)Cc3cn4cc(C5CC5)cc(N5CC(=O)N(C)C5=O)c4n3)ncn2)n1 [Example 461, N-((6-cyclopropyl-8-(3-methyl-2,4-dioxoimidazolidin-1-yl)imidazo[1,2-a]pyridin-2-yl)methyl)-N-(6-((1S,2S)-2-(4-methylpyrimidin-2-yl)cyclopropane-1-carboxamido)pyrimidin-4-yl)glycine]
100 to 1000 | Cc1ccnc([C@H]2C[C@@H]2C(=O)Nc2cc(N(Cc3cn4cc(C5CC5)cc(N5CC(=O)N(C)C5=O)c4n3)C(=O)OC(C)OC(=O)C(C)C)ncn2)n1 (stereo partly drawn) [Example 467, 1-((((6-cyclopropyl-8-(3-methyl-2,4-dioxoimidazolidin-1-yl)imidazo[1,2-a]pyridin-2-yl)methyl)(6-((1S,2S)-2-(4-methylpyrimidin-2-yl)cyclopropane-1-carboxamido)pyrimidin-4-yl)carbamoyl)oxy)ethyl isobutyrate]
< 1 | Cc1ccnc([C@H]2C[C@@H]2C(=O)Nc2cc(N[C@H](C)c3cn4cc(C5CC5)cc(N5CC(=O)N(C)C5=O)c4n3)nc(CCO)n2)n1 [Example 468, (1S,2S)—N-(6-(((R)-1-(6-cyclopropyl-8-(3-methyl-2,4-dioxoimidazolidin-1-yl)imidazo[1,2-a]pyridin-2-yl)ethyl)amino)-2-(2-hydroxyethyl)pyrimidin-4-yl)-2-(4-methylpyrimidin-2-yl)cyclopropane-1-carboxamide]
< 1 | Cc1ccnc([C@H]2C[C@@H]2C(=O)Nc2cc(N[C@H](C)c3cn4cc(C5CC5)cc(N5CC(=O)N(C)C5=O)c4n3)nc(CO)n2)n1 [Example 469, (1S,2S)-N-(6-(((R)-1-(6-cyclopropyl-8-(3-methyl-2,4-dioxoimidazolidin-1-yl)imidazo[1,2-a]pyridin-2-yl)ethyl)amino)-2-(hydroxymethyl)pyrimidin-4-yl)-2-(4-methylpyrimidin-2-yl)cyclopropane-1-carboxamide]
100 to 1000 | O=C(Nc1cc(N2C[C@@H](O)[C@@H](O)[C@@H]2c2cn3cc(C4CC4)ccc3n2)ncn1)[C@H]1C[C@@H]1c1cccc(Cl)c1 [Example 483, (1S,2S)-2-(3-chlorophenyl)-N-(6-((2S,3S,4R)-2-(6-cyclopropylimidazo[1,2-a]pyridin-2-yl)-3,4-dihydroxypyrrolidin-1-yl)pyrimidin-4-yl)cyclopropane-1-carboxamide]
> 6000 | O=C(Nc1cc(N2CC[C@H](O)[C@H]2c2cn3cc(C4CC4)ccc3n2)ncn1)[C@H]1C[C@@H]1c1cccc(Cl)c1 [Example 484, (1S,2S)-2-(3-chlorophenyl)-N-(6-((2R,3S)-2-(6-cyclopropylimidazo[1,2-a]pyridin-2-yl)-3-hydroxypyrrolidin-1-yl)pyrimidin-4-yl)cyclopropane-1-carboxamide]
1000 to 6000 | O=C(Nc1cc(N2CC[C@@H](O)[C@@H]2c2cn3cc(C4CC4)ccc3n2)ncn1)[C@H]1C[C@@H]1c1cccc(Cl)c1 [Example 485, (1S,2S)-2-(3-chlorophenyl)-N-(6-((2S,3R)-2-(6-cyclopropylimidazo[1,2-a]pyridin-2-yl)-3-hydroxypyrrolidin-1-yl)pyrimidin-4-yl)cyclopropane-1-carboxamide]
1 to 10 | C#Cc1cccc([C@H]2C[C@@H]2C(=O)Nc2cc(N3C[C@@H](O)C[C@@H]3c3cn4cc(C5CC5)ccc4n3)ncn2)c1 [Example 486, (1S,2S)-N-(6-((2R,4S)-2-(6-cyclopropylimidazo[1,2-a]pyridin-2-yl)-4-hydroxypyrrolidin-1-yl)pyrimidin-4-yl)-2-(3-ethynylphenyl)cyclopropane-1-carboxamide]
< 1 | Cc1ccnc([C@H]2C[C@@H]2C(=O)Nc2cc(N[C@H](C)c3cn4cc(C(C)F)cc(N5CC(=O)N(C)C5=O)c4n3)ncn2)n1 (stereo partly drawn) [Example 530, (1S,2S)-N-(6-(((1R)-1-(6-(1-fluoroethyl)-8-(3-methyl-2,4-dioxoimidazolidin-1-yl)imidazo[1,2-a]pyridin-2-yl)ethyl)amino)pyrimidin-4-yl)-2-(4-methylpyrimidin-2-yl)cyclopropane-1-carboxamide]
< 1 | Cc1ccnc([C@H]2C[C@@H]2C(=O)Nc2cc(N[C@H](C)c3cn4cc(C(C)(F)F)cc(N5CC(=O)N(C)C5=O)c4n3)ncn2)n1 [Example 531, (1S,2S)-N-(6-(((R)-1-(6-(1,1-difluoroethyl)-8-(3-methyl-2,4-dioxoimidazolidin-1-yl)imidazo[1,2-a]pyridin-2-yl)ethyl)amino)pyrimidin-4-yl)-2-(4-methylpyrimidin-2-yl)cyclopropane-1-carboxamide]
< 1 | Cc1ccnc([C@H]2C[C@@H]2C(=O)Nc2cc(N[C@H](C)c3cn4cc(C5CC5)cc(N5CC(=O)NC5=O)c4n3)nc(C)n2)n1 [Example 532, (1S,2S)-N-(6-(((R)-1-(6-cyclopropyl-8-(2,4-dioxoimidazolidin-1-yl)imidazo[1,2-a]pyridin-2-yl)ethyl)amino)-2-methylpyrimidin-4-yl)-2-(4-methylpyrimidin-2-yl)cyclopropane-1-carboxamide]
< 1 | Cc1ccnc([C@H]2C[C@@H]2C(=O)Nc2cc(N[C@H](C)c3cn4cc(C5CC5)cc(N5CC(=O)NC5=O)c4n3)ncn2)n1 [Example 533, (1S,2S)-N-(6-(((R)-1-(6-cyclopropyl-8-(2,4-dioxoimidazolidin-1-yl)imidazo[1,2-a]pyridin-2-yl)ethyl)amino)pyrimidin-4-yl)-2-(4-methylpyrimidin-2-yl)cyclopropane-1-carboxamide]
< 1 | Cc1ccnc([C@H]2C[C@@H]2C(=O)Nc2cc(NCc3cn4cc(C5CC5(F)F)cc(N5CC(=O)N(C)C5=O)c4n3)ncn2)n1 (stereo partly drawn) [Example 535, (1S,2S)-N-(6-(((6-(2,2-difluorocyclopropyl)-8-(3-methyl-2,4-dioxoimidazolidin-1-yl)imidazo[1,2-a]pyridin-2-yl)methyl)amino)pyrimidin-4-yl)-2-(4-methylpyrimidin-2-yl)cyclopropane-1-carboxamide]
< 1 | Cc1ccnc([C@H]2C[C@@H]2C(=O)Nc2cc(N[C@H](C)c3cn4cc(C5CC5)cc(N5CCN(C)C5=O)c4n3)ncn2)n1 [Example 536, (1S,2S)-N-(6-(((R)-1-(6-cyclopropyl-8-(3-methyl-2-oxoimidazolidin-1-yl)imidazo[1,2-a]pyridin-2-yl)ethyl)amino)pyrimidin-4-yl)-2-(4-methylpyrimidin-2-yl)cyclopropane-1-carboxamide]
< 1 | CCc1cc(N2CC(=O)N(C)C2=O)c2nc(CNc3cc(NC(=O)[C@H]4C[C@@H]4c4nccc(C)n4)nc(C)n3)cn2c1 [Example 537, (1S,2S)-N-(6-(((6-ethyl-8-(3-methyl-2,4-dioxoimidazolidin-1-yl)imidazo[1,2-a]pyridin-2-yl)methyl)amino)-2-methylpyrimidin-4-yl)-2-(4-methylpyrimidin-2-yl)cyclopropane-1-carboxamide]
< 1 | CCc1cc(N2CC(=O)N(C)C2=O)c2nc(CNc3cc(NC(=O)[C@H]4C[C@@H]4c4nccc(C)n4)ncn3)cn2c1 [Example 538, (1S,2S)-N-(6-(((6-ethyl-8-(3-methyl-2,4-dioxoimidazolidin-1-yl)imidazo[1,2-a]pyridin-2-yl)methyl)amino)pyrimidin-4-yl)-2-(4-methylpyrimidin-2-yl)cyclopropane-1-carboxamide]
100 to 1000 | Cc1ccnc([C@H]2C[C@@H]2C(=O)Nc2cc(OCc3cn4c(N5CC(=O)N(C)C5=O)cc(C5CC5)cc4n3)ncn2)n1 [Example 554, (1S,2S)-N-(6-((7-cyclopropyl-5-(3-methyl-2,4-dioxoimidazolidin-1-yl)imidazo[1,2-a]pyridin-2-yl)methoxy)pyrimidin-4-yl)-2-(4-methylpyrimidin-2-yl)cyclopropane-1-carboxamide]
100 to 1000 | O=C(Nc1ncccc1OCc1cn2cc(C3CC3)ccc2n1)[C@H]1C[C@@H]1c1cccc(Cl)c1 [Example 569, (1S,2S)-2-(3-chlorophenyl)-N-(3-((6-cyclopropylimidazo[1,2-a]pyridin-2-yl)methoxy)pyridin-2-yl)cyclopropane-1-carboxamide]
10 to 100 | O=C(Nc1nccnc1OCc1cn2cc(C3CC3)ccc2n1)[C@H]1C[C@@H]1c1cccc(Cl)c1 [Example 570, (1S,2S)-2-(3-chlorophenyl)-N-(3-((6-cyclopropylimidazo[1,2-a]pyridin-2-yl)methoxy)pyrazin-2-yl)cyclopropane-1-carboxamide]
< 1 | Cc1ccnc([C@H]2C[C@@H]2C(=O)Nc2cc(OCc3cn4cc(C5CC5)cc(N5CC6CC6C5=O)c4n3)cnn2)n1 (stereo partly drawn) [Example 571, (1S,2S)-N-(5-((6-cyclopropyl-8-(2-oxo-3-azabicyclo[3.1.0]hexan-3-yl)imidazo[1,2-a]pyridin-2-yl)methoxy)pyridazin-3-yl)-2-(4-methylpyrimidin-2-yl)cyclopropane-1-carboxamide]
< 1 | O=C(Nc1nccc2nn(Cc3cn4cc(C5CC5)ccc4n3)cc12)[C@H]1C[C@@H]1c1cc(Cl)ccn1 [Example 577, (1S,2S)-2-(4-chloropyridin-2-yl)-N-(2-((6-cyclopropylimidazo[1,2-a]pyridin-2-yl)methyl)-2H-pyrazolo[4,3-c]pyridin-4-yl)cyclopropane-1-carboxamide]
